Measurements reported in publication PMC5584945, “Evaluation of robenidine analog NCL195 as a novel broad-spectrum antibacterial agent” (PLoS ONE, 2017).
Values after ≈ are worked out from the molar mass of the structure shown.

Key:
S. pneumoniae = test: MIC, broth micro-dilution (CLSI); type: cell-based, Streptococcus pneumoniae; settings: for MIC90 / MIC / MIC50: Streptococcus pneumoniae
S. aureus Xen29 = test: Time-dependent killing assay; type: cell-based, Staphylococcus aureus; settings: for Time to clear all Xen29: 4× MIC
Experimental: Time kill assays were performed (in duplicate) essentially as described previously with slight modifications. Briefly, a few colonies of luminescent S. pneumoniae strain D39LUX or luminescent S. aureus ATCC 12600 (Xen29) from an overnight HBA were emulsified in normal saline and adjusted to A600 nm = 0.10 (equivalent to approx. 5 × 10^7 c.f.u. per ml) and the bacterial suspension further diluted 1:20 in saline. […] The compounds were serially diluted in 100% DMSO at 100× the final desired concentration and 100 μl of appropriate concentrations added to each 10 ml preparation. Duplicate cultures were incubated at 37°C (+ 5% CO2 for S. pneumoniae D39), with samples withdrawn at 0, 0.5, 1, 2, 4, 6, 8 and 24 h, serially diluted 10-fold and plated on HBA overnight at 37°C (+ 5% CO2 for S. pneumoniae D39) for bacterial enumeration.

[1] = tested on: vancomycin-resistant enterococci (VRE); test: MIC, broth micro-dilution (CLSI); type: cell-based, enterococci (porcine isolates); settings: for MIC90 / MIC50 / MIC: Enterococcus, VRE
[2] = S1 Table isolates, 5% FBS + 3% washed RBC
[3] = ATCC6303, ATCC 6303 (serotype 3), 5% FBS + 3% washed RBC
[4] = D39/D39LUX (serotype 2), 5% FBS
[5] = S3 Table isolates, absence of FBS

CCCCCCCCCC(=O)N[C@@H](Cc1c[nH]c2ccccc12)C(=O)N[C@H](CC(N)=O)C(=O)N[C@@H](CC(=O)O)C(=O)N[C@@H]1C(=O)NCC(=O)N[C@@H](CCCN)C(=O)N[C@@H](CC(=O)O)C(=O)N[C@H](C)C(=O)N[C@@H](CC(=O)O)C(=O)NCC(=O)N[C@H](CO)C(=O)N[C@@H]([C@H](C)CC(=O)O)C(=O)N[C@@H](CC(=O)c2ccccc2N)C(=O)O[C@@H]1C [Daptomycin, daptomycin]
MIC range (S. pneumoniae; [2]): 0.125 to 0.5 µg/mL
MIC90 (S. pneumoniae; 21 isolates): 0.5 µg/mL (≈ 0.309 µM)
MIC (S. pneumoniae; A66.1 (serotype 3), 5% FBS): 0.25 µg/mL (≈ 0.154 µM)
MIC (S. pneumoniae; [3]): 0.25 µg/mL
MIC (S. pneumoniae; [4]): 0.25 µg/mL (≈ 0.154 µM)
MIC (S. pneumoniae; D39/D39LUX (serotype 2), 10% FBS): 0.25 µg/mL (≈ 0.154 µM)
MIC (S. pneumoniae; EF3030 (serotype 19F), 5% FBS): 0.25 µg/mL (≈ 0.154 µM)
MIC (S. pneumoniae; L82016 (serotype 6B), 5% FBS): 0.25 µg/mL (≈ 0.154 µM)
MIC (S. pneumoniae; P9 (serotype 6A), 5% FBS): 0.25 µg/mL (≈ 0.154 µM)
MIC (S. pneumoniae; P21 (serotype 3), 5% FBS): 0.25 µg/mL (≈ 0.154 µM)
MIC50 (S. pneumoniae; S1 Table isolates, 5% FBS): 0.25 µg/mL (≈ 0.154 µM)
MIC90 (S. pneumoniae; S1 Table isolates, 5% FBS): 0.25 µg/mL (≈ 0.154 µM)
MIC (S. pneumoniae; TIGR4 (serotype 4), 5% FBS): 0.25 µg/mL (≈ 0.154 µM)
MIC (S. pneumoniae; WCH16 (serotype 6A), 5% FBS): 0.25 µg/mL (≈ 0.154 µM)
MIC (S. pneumoniae; WCH43 (serotype 4), 5% FBS): 0.25 µg/mL (≈ 0.154 µM)
MIC (S. pneumoniae; WCH46 (serotype 4), 5% FBS): 0.125 µg/mL (≈ 0.0771 µM)
MIC (S. pneumoniae; WCH57 (serotype 8), 5% FBS): 0.25 µg/mL (≈ 0.154 µM)
MIC (S. pneumoniae; WCH77 (serotype 5), 5% FBS): 0.5 µg/mL (≈ 0.309 µM)
MIC (S. pneumoniae; WCH86 (serotype 4), 5% FBS): 0.125 µg/mL (≈ 0.0771 µM)
MIC (S. pneumoniae; WCH89 (serotype 7), 5% FBS): 0.5 µg/mL (≈ 0.309 µM)
MIC (S. pneumoniae; WCH92 (serotype 4), 5% FBS): 0.125 µg/mL (≈ 0.0771 µM)
MIC (S. pneumoniae; WCH137 (serotype 6A), 5% FBS): 0.125 µg/mL (≈ 0.0771 µM)
MIC (S. pneumoniae; WCH158 (serotype 19F), 5% FBS): 0.125 µg/mL (≈ 0.0771 µM)
MIC (S. pneumoniae; WCH184 (serotype 19F), 5% FBS): 0.25 µg/mL (≈ 0.154 µM)
MIC (S. pneumoniae; WCH211 (serotype 11), 5% FBS): 0.25 µg/mL (≈ 0.154 µM)
MIC (S. pneumoniae; WU2 (serotype 3), 5% FBS): 0.125 µg/mL (≈ 0.0771 µM)
Time to clear all Xen29 (S. aureus Xen29): 1 h
MIC90 ([1]; 20 isolates): 2 µg/mL (≈ 1.23 µM)
MIC50 [1, 5]: 1 µg/mL (≈ 0.617 µM)
MIC90 [1, 5]: 2 µg/mL (≈ 1.23 µM)
MIC ([1]; VRE 1 (49 FR), absence of FBS): 1 µg/mL (≈ 0.617 µM)
MIC ([1]; VRE 2 (53 FR), absence of FBS): 2 µg/mL (≈ 1.23 µM)
MIC ([1]; VRE 3 (55 FR), absence of FBS): 2 µg/mL (≈ 1.23 µM)
MIC ([1]; VRE 4 (57 FR), absence of FBS): 2 µg/mL (≈ 1.23 µM)
MIC ([1]; VRE5 (58 FR), absence of FBS): 2 µg/mL (≈ 1.23 µM)
MIC ([1]; VRE 6 (59 FR), absence of FBS): 2 µg/mL (≈ 1.23 µM)
MIC ([1]; VRE 7 (270 G), absence of FBS): 1 µg/mL (≈ 0.617 µM)
MIC ([1]; VRE 8 (277 G), absence of FBS): 0.5 µg/mL (≈ 0.309 µM)
MIC ([1]; VRE 9 (61 FR), absence of FBS): 1 µg/mL (≈ 0.617 µM)
MIC ([1]; VRE 10 (62 FR), absence of FBS): 2 µg/mL (≈ 1.23 µM)
MIC ([1]; VRE 11 (284 G), absence of FBS): 0.5 µg/mL (≈ 0.309 µM)
MIC ([1]; VRE 12 (290 G), absence of FBS): 1 µg/mL (≈ 0.617 µM)
MIC ([1]; VRE 13 (251 G), absence of FBS): 0.5 µg/mL (≈ 0.309 µM)
MIC ([1]; VRE 14 (252 G), absence of FBS): 1 µg/mL (≈ 0.617 µM)
MIC ([1]; VRE 15 (63 FR), absence of FBS): 1 µg/mL (≈ 0.617 µM)
MIC ([1]; VRE 16 (60 FR), absence of FBS): 2 µg/mL (≈ 1.23 µM)
MIC ([1]; VRE 17 (45 FR), absence of FBS): 2 µg/mL (≈ 1.23 µM)
MIC ([1]; VRE 18 (69 W), absence of FBS): 1 µg/mL (≈ 0.617 µM)
MIC ([1]; VRE 19 (70 W), absence of FBS): 0.5 µg/mL (≈ 0.309 µM)
MIC ([1]; VRE 20 (78 W), absence of FBS): 2 µg/mL (≈ 1.23 µM)
MIC range [1, 5]: 0.5 to 2 µg/mL

CC1(C)S[C@@H]2[C@H](NC(=O)[C@H](N)c3ccccc3)C(=O)N2[C@H]1C(=O)O [Ampicillin]
MIC range (S. pneumoniae; [2]): 0.06 to 1 µg/mL
MIC90 (S. pneumoniae; 21 isolates): 0.5 µg/mL (≈ 1.43 µM)
MIC (S. pneumoniae; A66.1 (serotype 3), 5% FBS): 0.125 µg/mL (≈ 0.358 µM)
MIC (S. pneumoniae; [3]): 0.125 µg/mL
MIC (S. pneumoniae; [4]): 0.125 µg/mL (≈ 0.358 µM)
MIC (S. pneumoniae; EF3030 (serotype 19F), 5% FBS): 0.5 µg/mL (≈ 1.43 µM)
MIC (S. pneumoniae; L82016 (serotype 6B), 5% FBS): 0.06 µg/mL (≈ 0.172 µM)
MIC (S. pneumoniae; P9 (serotype 6A), 5% FBS): 0.06 µg/mL (≈ 0.172 µM)
MIC (S. pneumoniae; P21 (serotype 3), 5% FBS): 0.06 µg/mL (≈ 0.172 µM)
MIC50 (S. pneumoniae; S1 Table isolates, 5% FBS): 0.125 µg/mL (≈ 0.358 µM)
MIC90 (S. pneumoniae; S1 Table isolates, 5% FBS): 0.5 µg/mL (≈ 1.43 µM)
MIC (S. pneumoniae; TIGR4 (serotype 4), 5% FBS): 0.125 µg/mL (≈ 0.358 µM)
MIC (S. pneumoniae; WCH16 (serotype 6A), 5% FBS): 1 µg/mL (≈ 2.86 µM)
MIC (S. pneumoniae; WCH43 (serotype 4), 5% FBS): 0.125 µg/mL (≈ 0.358 µM)
MIC (S. pneumoniae; WCH46 (serotype 4), 5% FBS): 0.125 µg/mL (≈ 0.358 µM)
MIC (S. pneumoniae; WCH57 (serotype 8), 5% FBS): 0.5 µg/mL (≈ 1.43 µM)
MIC (S. pneumoniae; WCH77 (serotype 5), 5% FBS): 0.5 µg/mL (≈ 1.43 µM)
MIC (S. pneumoniae; WCH86 (serotype 4), 5% FBS): 0.06 µg/mL (≈ 0.172 µM)
MIC (S. pneumoniae; WCH89 (serotype 7), 5% FBS): 0.125 µg/mL (≈ 0.358 µM)
MIC (S. pneumoniae; WCH92 (serotype 4), 5% FBS): 0.5 µg/mL (≈ 1.43 µM)
MIC (S. pneumoniae; WCH137 (serotype 6A), 5% FBS): 0.06 µg/mL (≈ 0.172 µM)
MIC (S. pneumoniae; WCH158 (serotype 19F), 5% FBS): 0.125 µg/mL (≈ 0.358 µM)
MIC (S. pneumoniae; WCH184 (serotype 19F), 5% FBS): 0.125 µg/mL (≈ 0.358 µM)
MIC (S. pneumoniae; WCH211 (serotype 11), 5% FBS): 0.125 µg/mL (≈ 0.358 µM)
MIC (S. pneumoniae; WU2 (serotype 3), 5% FBS): 0.125 µg/mL (≈ 0.358 µM)
Time to clear all Xen29 (S. aureus Xen29): 6 h
Regrowth after 24 h (S. aureus Xen29; at the concentrations tested (2× and 4× MIC)): some S. aureus regrowth was observed
MIC90 ([1]; 20 isolates): 2 µg/mL (≈ 5.72 µM)
MIC50 [1, 5]: 1 µg/mL (≈ 2.86 µM)
MIC90 [1, 5]: 2 µg/mL (≈ 5.72 µM)
MIC ([1]; VRE 1 (49 FR), absence of FBS): 2 µg/mL (≈ 5.72 µM)
MIC ([1]; VRE 2 (53 FR), absence of FBS): 1 µg/mL (≈ 2.86 µM)
MIC ([1]; VRE 3 (55 FR), absence of FBS): 1 µg/mL (≈ 2.86 µM)
MIC ([1]; VRE 4 (57 FR), absence of FBS): 1 µg/mL (≈ 2.86 µM)
MIC ([1]; VRE5 (58 FR), absence of FBS): 1 µg/mL (≈ 2.86 µM)
MIC ([1]; VRE 6 (59 FR), absence of FBS): 2 µg/mL (≈ 5.72 µM)
MIC ([1]; VRE 7 (270 G), absence of FBS): 0.25 µg/mL (≈ 0.715 µM)
MIC ([1]; VRE 8 (277 G), absence of FBS): 2 µg/mL (≈ 5.72 µM)
MIC ([1]; VRE 9 (61 FR), absence of FBS): 1 µg/mL (≈ 2.86 µM)
MIC ([1]; VRE 10 (62 FR), absence of FBS): 2 µg/mL (≈ 5.72 µM)
MIC ([1]; VRE 11 (284 G), absence of FBS): 2 µg/mL (≈ 5.72 µM)
MIC ([1]; VRE 12 (290 G), absence of FBS): 1 µg/mL (≈ 2.86 µM)
MIC ([1]; VRE 13 (251 G), absence of FBS): 1 µg/mL (≈ 2.86 µM)
MIC ([1]; VRE 14 (252 G), absence of FBS): 0.5 µg/mL (≈ 1.43 µM)
MIC ([1]; VRE 15 (63 FR), absence of FBS): 1 µg/mL (≈ 2.86 µM)
MIC ([1]; VRE 16 (60 FR), absence of FBS): 1 µg/mL (≈ 2.86 µM)
MIC ([1]; VRE 17 (45 FR), absence of FBS): 2 µg/mL (≈ 5.72 µM)
MIC ([1]; VRE 18 (69 W), absence of FBS): 1 µg/mL (≈ 2.86 µM)
MIC ([1]; VRE 19 (70 W), absence of FBS): 1 µg/mL (≈ 2.86 µM)
MIC ([1]; VRE 20 (78 W), absence of FBS): 1 µg/mL (≈ 2.86 µM)
MIC range [1, 5]: 0.25 to 2 µg/mL
